Reference: patent publication US20240368150A1 (Hoffmann-La Roche Inc., priority 2021, published 2024)
Where two headings read alike, the source gives them in different places.

Columns and labels:
primary human T-cells [1] = tested on: primary human T-cells
primary human T-cells [2] = experiment: Proliferation assay after 5 days (CellTiter-Glo, CD3 stimulation; PBS counter screen); format: cell-based; conditions: Homo sapiens, T-cell, 120 h, CD3 stimulation; for Emax: 5 days, normalized to reference compound A1 as stimulator control = 100%, DMSO neutral control, read-out: Emax proliferation (% activation); for EC50: primary human T-cells, CellTiter-Glo after 5 days, EC50 of fitted sigmoidal curve, read-out: Tcell Proliferation CD3 EC50
Procedure, shortened: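 After compound addition to medium-only plates, cells are cultured 5 days, equilibrated to room temperature, mixed with an equal volume of CellTiter-Glo 2.0 and rocked 15 min before luminescence is read. Signal reflects ATP content, taken as proportional to cell number.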

Row | Compound | EC50 (primary human T-cells [1]) [nM] | Emax (primary human T-cells [2]) [%] | EC50 (primary human T-cells [2]) [nM]
1 | N[C@H]1CS(=O)(=O)c2cc(F)c(-c3nnc(C45CNCCC4C5)o3)cc2N(Cc2ccc(Cl)cc2)C1=O (stereo partly drawn) [Example 121, (3R)-3-amino-7-[5-(3-azabicyclo[4.1.0]heptan-1-yl)-1,3,4-oxadiazol-2-yl]-5-[(4-chlorophenyl)methyl]-8-fluoro-1,1-dioxo-2,3-dihydro-1λ^6,5-benzothiazepin-4-one] | 6370 | 72 | 4760
2 | CC(C)(C)c1nnc(-c2ccc3c(c2)N(Cc2ccc(S(=O)(=O)C(F)(F)F)cc2)C(=O)[C@@H](N)CS3(=O)=O)o1 [Example 123, (3R)-3-amino-7-(5-tert-butyl-1,3,4-oxadiazol-2-yl)-1,1-dioxo-5-[[4-(trifluoromethylsulfonyl)phenyl]methyl]-2,3-dihydro-1λ^6,5-benzothiazepin-4-one] | 1650 | 82 | > 2730
3 | CN(C)C(=O)C(C)(C)c1nnc(-c2cc3c(cc2F)S(=O)(=O)C[C@H](N)C(=O)N3Cc2ccc(Cl)cc2)o1 [Example 125, N,N,2-trimethyl-2-[5-[(3R)-3-amino-5-[(4-chlorophenyl)methyl]-8-fluoro-1,1,4-trioxo-2,3-dihydro-1λ^6,5-benzothiazepin-7-yl]-1,3,4-oxadiazol-2-yl]propanamide] | 1440 | 112 | 587
4 | CC(C)(c1nnc(-c2cc3c(cc2F)S(=O)(=O)C[C@H](N)C(=O)N3Cc2ccc(Cl)cc2)o1)N1CCCC1 [Example 128, (3R)-3-amino-5-[(4-chlorophenyl)methyl]-8-fluoro-7-[5-(1-methyl-1-pyrrolidin-1-yl-ethyl)-1,3,4-oxadiazol-2-yl]-1,1-dioxo-2,3-dihydro-1λ^6,5-benzothiazepin-4-one] | 1240 | 99 | 534
5 | Cc1ccc(-c2nnc(-c3cc4c(cc3F)S(=O)(=O)C[C@H](N)C(=O)N4Cc3ccc(Cl)cc3)o2)nc1 [Example 129, (3R)-3-amino-5-[(4-chlorophenyl)methyl]-8-fluoro-7-[5-(5-methyl-2-pyridyl)-1,3,4-oxadiazol-2-yl]-1,1-dioxo-2,3-dihydro-1λ^6,5-benzothiazepin-4-one] | 1900 | 106 | 1420
6 | COC(=O)N1CCC(OC)(c2nnc(-c3cc4c(cc3F)S(=O)(=O)C[C@H](N)C(=O)N4Cc3ccc(Cl)cc3)o2)CC1 [Example 132, methyl 4-methoxy-4-[5-[(3R)-3-amino-5-[(4-chlorophenyl)methyl]-8-fluoro-1,1,4-trioxo-2,3-dihydro-1λ^6,5-benzothiazepin-7-yl]-1,3,4-oxadiazol-2-yl]-piperidine-1-carboxylate] | 1950 | 97 | 150
7 | N[C@H]1CS(=O)(=O)c2cc(F)c(-c3nnc(-c4ccc(F)nc4)o3)cc2N(Cc2ccc(Cl)cc2)C1=O [Example 134, (3R)-3-amino-5-[(4-chlorophenyl)methyl]-8-fluoro-7-[5-(6-fluoro-3-pyridyl)-1,3,4-oxadiazol-2-yl]-1,1-dioxo-2,3-dihydro-1λ^6,5-benzothiazepin-4-one] | 1360 | 34 | > 10000
8 | N[C@H]1CS(=O)(=O)c2cc(F)c(-c3nnc(-c4ccc(F)cn4)o3)cc2N(Cc2ccc(Cl)cc2)C1=O [Example 135, (3R)-3-amino-5-[(4-chlorophenyl)methyl]-8-fluoro-7-[5-(5-fluoro-2-pyridyl)-1,3,4-oxadiazol-2-yl]-1,1-dioxo-2,3-dihydro-1λ^6,5-benzothiazepin-4-one] | 2900 | 93 | 1050
9 | CC(C)(CN1CCS(=O)(=O)CC1)c1nnc(-c2cc3c(cc2F)S(=O)(=O)C[C@H](N)C(=O)N3Cc2ccc(Cl)cc2)o1 [Example 138, (3R)-3-amino-5-[(4-chlorophenyl)methyl]-7-[5-[2-(1,1-dioxo-1,4-thiazinan-4-yl)-1,1-dimethyl-ethyl]-1,3,4-oxadiazol-2-yl]-8-fluoro-1,1-dioxo-2,3-dihydro-1λ^6,5-benzothiazepin-4-one] | 3470 | 120 | 1510
10 | CN(CCO)CC(C)(C)c1nnc(-c2cc3c(cc2F)S(=O)(=O)C[C@H](N)C(=O)N3Cc2ccc(Cl)cc2)o1 [Example 139, (3R)-3-amino-5-[(4-chlorophenyl)methyl]-8-fluoro-7-[5-[2-[2-hydroxyethyl(methyl)amino]-1,1-dimethyl-ethyl]-1,3,4-oxadiazol-2-yl]-1,1-dioxo-2,3-dihydro-1λ^6,5-benzothiazepin-4-one] | 4000 | 102 | 3400
11 | CN(C)CCC(C)(C)c1nnc(-c2cc3c(cc2F)S(=O)(=O)C[C@H](N)C(=O)N3Cc2ccc(Cl)cc2)o1 [Example 140, (3R)-3-amino-5-[(4-chlorophenyl)methyl]-7-[5-[3-(dimethylamino)-1,1-dimethyl-propyl]-1,3,4-oxadiazol-2-yl]-8-fluoro-1,1-dioxo-2,3-dihydro-1λ^6,5-benzothiazepin-4-one] | 3880 | 70 | 5350

Second part, led by results:

Row | EC50 (primary human T-cells [1]) [nM] | Compound | Emax (primary human T-cells [2]) [%] | EC50 (primary human T-cells [2]) [nM]
12 | 1210 | CC(C)(O)c1nnc(-c2cc3c(cc2F)S(=O)(=O)C[C@H](N)C(=O)N3Cc2ccc(Cl)cc2)o1 [Example 119, (3R)-3-amino-5-[(4-chlorophenyl)methyl]-8-fluoro-7-[5-(1-hydroxy-1-methyl-ethyl)-1,3,4-oxadiazol-2-yl]-1,1-dioxo-2,3-dihydro-1λ^6,5-benzothiazepin-4-one] | 97 | 730
13 | 256 | COC(=O)N1CC2(c3nnc(-c4cc5c(cc4F)S(=O)(=O)C[C@H](N)C(=O)N5Cc4ccc(Cl)cc4)o3)CC1CO2 (stereo partly drawn) [Example 120, methyl 1-[5-[(3R)-3-amino-5-[(4-chlorophenyl)methyl]-8-fluoro-1,1,4-trioxo-2,3-dihydro-1λ^6,5-benzothiazepin-7-yl]-1,3,4-oxadiazol-2-yl]-2-oxa-5-azabicyclo[2.2.1]heptane-5-carboxylate] | 96 | 129
14 | 62.4 | N[C@H]1CS(=O)(=O)c2cc(F)c(-c3nnc(C4(C(F)(F)F)CC4)o3)cc2N(Cc2ccc(Cl)cc2)C1=O [Example 126, (3R)-3-amino-5-[(4-chlorophenyl)methyl]-8-fluoro-1,1-dioxo-7-[5-[1-(trifluoromethyl)cyclopropyl]-1,3,4-oxadiazol-2-yl]-2,3-dihydro-1λ^6,5-benzothiazepin-4-one] | 135 | 113
15 | 232 | CC(N)(c1nnc(-c2cc3c(cc2F)S(=O)(=O)C[C@H](N)C(=O)N3Cc2ccc(Cl)cc2)o1)C(F)(F)F (stereo partly drawn) [Example 127, (3R)-3-amino-7-[5-(1-amino-2,2,2-trifluoro-1-methyl-ethyl)-1,3,4-oxadiazol-2-yl]-5-[(4-chlorophenyl)methyl]-8-fluoro-1,1-dioxo-2,3-dihydro-1λ^6,5-benzothiazepin-4-one] | 110 | 181
16 | 284 | Cc1cc(C)c(-c2nnc(-c3cc4c(cc3F)S(=O)(=O)C[C@H](N)C(=O)N4Cc3ccc(Cl)cc3)o2)cn1 [Example 130, (3R)-3-amino-5-[(4-chlorophenyl)methyl]-7-[5-(4,6-dimethyl-3-pyridyl)-1,3,4-oxadiazol-2-yl]-8-fluoro-1,1-dioxo-2,3-dihydro-1λ^6,5-benzothiazepin-4-one] | 114 | 159
17 | 376 | Cc1nc(F)ccc1-c1nnc(-c2cc3c(cc2F)S(=O)(=O)C[C@H](N)C(=O)N3Cc2ccc(Cl)cc2)o1 [Example 131, (3R)-3-amino-5-[(4-chlorophenyl)methyl]-8-fluoro-7-[5-(6-fluoro-2-methyl-3-pyridyl)-1,3,4-oxadiazol-2-yl]-1,1-dioxo-2,3-dihydro-1λ^6,5-benzothiazepin-4-one] | 192 | 347
18 | 1190 | Cc1ccc(-c2nnc(-c3cc4c(cc3F)S(=O)(=O)C[C@H](N)C(=O)N4Cc3ccc(Cl)cc3)o2)cn1 [Example 133, (3R)-3-amino-5-[(4-chlorophenyl)methyl]-8-fluoro-7-[5-(6-methyl-3-pyridyl)-1,3,4-oxadiazol-2-yl]-1,1-dioxo-2,3-dihydro-1λ^6,5-benzothiazepin-4-one] | 144 | 324
19 | 187 | CC(C)(c1nnc(-c2cc3c(cc2F)S(=O)(=O)C[C@H](N)C(=O)N3Cc2ccc(Cl)cc2)o1)C(N)C(F)(F)F (stereo partly drawn) [Example 136, (3R)-3-amino-7-[5-(2-amino-3,3,3-trifluoro-1,1-dimethyl-propyl)-1,3,4-oxadiazol-2-yl]-5-[(4-chlorophenyl)methyl]-8-fluoro-1,1-dioxo-2,3-dihydro-1λ^6,5-benzothiazepin-4-one] | 99 | 114
20 | 487 | COC(=O)NC(C(F)(F)F)C(C)(C)c1nnc(-c2cc3c(cc2F)S(=O)(=O)C[C@H](N)C(=O)N3Cc2ccc(Cl)cc2)o1 (stereo partly drawn) [Example 137, methyl N-[2-methyl-2-[5-[(3R)-3-amino-5-[(4-chlorophenyl)methyl]-8-fluoro-1,1,4-trioxo-2,3-dihydro-1λ^6,5-benzothiazepin-7-yl]-1,3,4-oxadiazol-2-yl]-1-(trifluoromethyl)propyl]carbamate] | 90 | 309
21 | 255 | CC(C)(CN1CCCCC1)c1nnc(-c2cc3c(cc2F)S(=O)(=O)C[C@H](N)C(=O)N3Cc2ccc(Cl)cc2)o1 [Example 141, (3R)-3-amino-5-[(4-chlorophenyl)methyl]-7-[5-[1,1-dimethyl-2-(1-piperidyl)ethyl]-1,3,4-oxadiazol-2-yl]-8-fluoro-1,1-dioxo-2,3-dihydro-1λ^6,5-benzothiazepin-4-one] | 91 | 768
